This is an account of results in patent US8212016B2, “NPC1L1 orthologues” (Schering Corporation, priority 2006, dated 2012).

Where two headings read alike, the source gives them in different places.

In assay [1] the test system is plasma and liver cholesterol. As to the kind of experiment: Percent cholesterol lowering in plasma and liver. As to conditions: hamster. In kind it is in vivo.
For assay [2], the target named is T1, monkey NPC1L1 (Macaca mulatta, UniProt A0MJA5). As to the kind of experiment: Fluorescence NPC1L1 binding assay, HEK-293 cells, BODIPY-labeled compound 1. Set-up: species or system rhesus monkey. As for the experimental part: Cell Culture and Membrane Preparation. Each plasmid pCR3.1 harboring NPC1L1 was prepared using standard molecular biology protocols. Stable cell lines expressing human, rhesus monkey, mouse, rat, hamster, canine or rabbit NPC1L1 were generated using Lipofectamine 2000 transfection reagent in HEK-293 cells according to the manufacturer's protocol. Cells were maintained in DMEM supplemented with 10% FBS, 100 U/ml pen/strep, and 500 μg/ml geneticin at 37° C., 5% CO2. All cell culture reagents were obtained from Invitrogen Life Technologies, (Carlsbad, Calif.). Cell membranes were prepared by lysing cells in 5 mM HEPES with protease inhibitors (Complete™ Protease Inhibitor Cocktail Tablets; Roche Diagnostics Corp., Indianapolis Ind.) for 15 min at 4° C. A membrane pellet was obtained by centrifuging the cell lysates at 12,000×g for 25 min. The membranes were resuspended in 5 mM HEPES with protease inhibitors and triturated with a 21G needle.
Fluorescence. Cells were plated into 384-well black/clear plates (BD Biosciences, Bedford Mass.) for binding experiments the following day. The media was aspirated. […] Media (20 μl) containing the indicated concentration of compound was then added to the wells. […] The binding reaction was allowed to proceed for 4 hours at 37° C. Subsequently the media was aspirated and the cells washed once with PBS.

For assay [3], the target named is T1, monkey NPC1L1. As to the kind of experiment: Radioligand binding of [3H]-glucuronidated ezetimibe (compound 4) to cell membranes. Also noted: species or system rhesus monkey. As for the experimental part: (§1) Cell Culture and Membrane Preparation. […] Cells were maintained in DMEM supplemented with 10% FBS, 100 U/ml pen/strep, and 500 μg/ml geneticin at 37° C., 5% CO2. All cell culture reagents were obtained from Invitrogen Life Technologies, (Carlsbad, Calif.). Cell membranes were prepared by lysing cells in 5 mM HEPES with protease inhibitors (Complete™ Protease Inhibitor Cocktail Tablets; Roche Diagnostics Corp., Indianapolis Ind.) for 15 min at 4° C. A membrane pellet was obtained by centrifuging the cell lysates at 12,000×g for 25 min. […] Radioligand. […] Natl. Acad. Sci. […] Reactions were performed in binding buffer (5 mM HEPES, 5.5 mM glucose, 117 mM NaCl and 5.4 mM KCl, pH 7.4). Cell membranes (50 μg in 20 μl) were added to each well. […] Binding reactions were incubated for 2 hours at 37° C. Samples were transferred to Unifilter-96 GF/C plates (Perkin Elmer, Wellesley Mass.) and filtered using a Brandel harvester (Gaithersburg Md.). […] Liquid scintillant (50 μl; Microscint-20, Perkin Elmer, Wellesley Mass.) was added and the bound radioactivity was measured using a microplate scintillation counter.

For assay [4], the target named is T2, human NPC1L1 (Homo sapiens, UniProt Q9UHC9, T1073A).
T2 construct: expressed in transfected cells
T2 sequence (Q9UHC9 22-1332 isoform Q9UHC9-2 T1046A): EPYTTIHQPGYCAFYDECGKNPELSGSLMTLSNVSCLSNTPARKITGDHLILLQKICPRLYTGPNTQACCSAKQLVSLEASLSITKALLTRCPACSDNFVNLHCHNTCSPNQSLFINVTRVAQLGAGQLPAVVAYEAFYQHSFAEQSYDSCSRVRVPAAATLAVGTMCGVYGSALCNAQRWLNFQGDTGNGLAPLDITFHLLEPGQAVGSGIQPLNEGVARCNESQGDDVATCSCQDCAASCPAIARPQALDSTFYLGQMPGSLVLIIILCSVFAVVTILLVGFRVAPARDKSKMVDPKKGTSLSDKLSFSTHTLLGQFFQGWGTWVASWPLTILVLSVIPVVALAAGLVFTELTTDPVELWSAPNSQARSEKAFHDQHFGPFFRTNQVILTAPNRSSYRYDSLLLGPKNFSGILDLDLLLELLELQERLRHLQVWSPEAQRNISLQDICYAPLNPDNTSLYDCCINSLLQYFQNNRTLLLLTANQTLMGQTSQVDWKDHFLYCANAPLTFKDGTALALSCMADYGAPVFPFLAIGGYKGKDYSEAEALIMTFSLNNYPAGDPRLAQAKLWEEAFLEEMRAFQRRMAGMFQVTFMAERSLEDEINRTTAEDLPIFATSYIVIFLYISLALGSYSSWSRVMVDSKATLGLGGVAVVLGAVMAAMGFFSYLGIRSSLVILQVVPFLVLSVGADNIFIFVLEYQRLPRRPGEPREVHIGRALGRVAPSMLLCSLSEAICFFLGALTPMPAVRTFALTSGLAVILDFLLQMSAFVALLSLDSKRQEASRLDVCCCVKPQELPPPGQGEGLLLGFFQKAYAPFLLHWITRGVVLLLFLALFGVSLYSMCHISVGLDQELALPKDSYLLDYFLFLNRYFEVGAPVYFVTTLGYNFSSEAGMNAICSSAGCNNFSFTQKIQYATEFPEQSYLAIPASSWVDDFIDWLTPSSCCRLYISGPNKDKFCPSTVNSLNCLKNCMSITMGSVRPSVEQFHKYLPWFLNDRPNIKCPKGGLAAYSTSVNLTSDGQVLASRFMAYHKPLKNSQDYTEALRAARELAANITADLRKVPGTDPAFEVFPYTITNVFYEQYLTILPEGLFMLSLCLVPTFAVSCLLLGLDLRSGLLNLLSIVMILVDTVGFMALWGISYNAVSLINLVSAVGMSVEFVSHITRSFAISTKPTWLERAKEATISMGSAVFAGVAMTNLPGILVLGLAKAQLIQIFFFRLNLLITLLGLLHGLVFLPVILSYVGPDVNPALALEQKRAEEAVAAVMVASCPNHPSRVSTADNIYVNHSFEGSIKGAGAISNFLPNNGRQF
The assay is described as above. As for the experimental part:
as §1

The subject of assay [5] is ^14C-cholesterol absorption. As to the kind of experiment: Acute cholesterol absorption assay. Format: in vivo. As to conditions: rat, intraduodenal; read-out: rat ED50, inhibition of cholesterol absorption. As for the experimental part: Acute cholesterol absorption assay. ^14C-cholesterol absorption was determined acutely in rats using conditions previously described (Van Heek et al., J. Pharmacol. Exp. Ther. 283: 157-163 (1997)). Compounds were dissolved in rat bile and delivered (1.0 ml) intraduodenally by bolus injection via an intestinal catheter, followed by 1.0 ml saline rinse (0.9%). Following a 30 min incubation, a cholesterol emulsion containing 3 mg cholesterol and 2 μCi ^14C-cholesterol (3 ml) was delivered to each rat as a bolus via intestinal catheter, followed by 1 ml saline rinse. Animals were sacrificed 90 min later and ^14C-cholesterol levels in plasma, liver, intestinal contents, and intestinal wall were determined.

Assay [6] addresses T2, human NPC1L1. Particulars: human NPC1L1, Garcia-Calvo et al. 2005; read-out: Kd, previously reported; cited from earlier work.

In general, Ki refers to a dissociation constant, usually derived from enzyme kinetics or from competition with a known ligand. For orientation: Kd means the equilibrium constant for the complex coming apart. A word on the ED50: it is the dose at which the effect has come halfway, by size or by number of responders. For `O=C(O)[C@H]1O[C@@H](Oc2ccc([C@@H]3[C@@H](CC[C@H](O)c4ccc(F)cc4)C(=O)N3c3ccc(F)cc3)cc2)[C@H](O)[C@@H](O)[C@@H]1O` [compound 4, glucuronidated ezetimibe], the “cholesterol lowering Liver” value in assay [1] (liver) is 92%. For the same compound, in assay [1] (plasma), the “cholesterol lowering Plasma” value stood at 48%. Also, the Ki at monkey NPC1L1 [2] (Monkey NPC1L1, competition with compound 1, read-out: Ki) is 92 nM. The “difference in affinity versus ezetimibe (compound 3)” value on monkey NPC1L1 [2] (monkey NPC1L1) is reported as around 10 fold. Further, the Kd at monkey NPC1L1 [3] was 102 nM; at human NPC1L1 [4], 206 nM; at human NPC1L1 [6], 220 nM. Moreover, the ED50 in assay [5] came to 1.9 µg/kg.
